Results as given in patent US20210330611A1, “THERAPY FOR NEUROLOGICAL DISEASES/DISORDERS” (priority 2020, published 2021).
Where a name gives a salt, the structure may show the parent alone. Read-outs that look alike come from different tables or passages of the source.

Legend:
[1] = system: primary rat microglia
[2] = system: fibrin- and LPS-induced microglia activation; assay: cells; type: cell-based, rat
[3] = system: fibrin-induced microglia activation; assay: Image-based assay of fibrin-induced microglia activation (HTS and dose response); type: cell-based, rat; details: primary microglia HTS, fibrin stimulation; for inhibition at 10 µM: Rattus norvegicus, Microglia, read-out: Fibrin % inhibition
[4] = system: LPS-induced microglia activation; assay: Image-based assay of LPS-induced microglia activation (HTS and dose response); type: cell-based, rat; details: for inhibition at 10 µM: Rattus norvegicus, Microglia, read-out: LPS % inhibition
[5] = system: primary rat microglia; assay: Cell toxicity (dead cells, size <150 μm2) in coated fibrin (cFib) assay; details: primary microglia HTS;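 note: share of dead cells sized under 150 µm2 at 10 µM in fibrin-stimulated microglia HTS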
[6] = classification by fibrin and LPS inhibition, HTS at 10 μM
[7] = primary microglia HTS, LPS stimulation, compounds at 10 μM
[8] = fibrin assay, dead cells (size <150 μm2), compounds at 10 μM
[9] = quadrant by fibrin and LPS inhibition, HTS at 10 μM
[10] = fibrin assay, dead cells (size <150 μm2)
[11] = classification by fibrin and LPS inhibition in HTS
[12] = cell size >800 μm2 as marker of activation
[13] = fibrin stimulation, cell size <150 μm2 as marker of toxicity

SMILES	LPS % cell toxicity ([1]; rat) [%]	Quadrant (FIG. 5b) [2, 6]	inhibition at 10 µM ([3]; compounds at 10 μM) [%]	inhibition at 10 µM [4, 7] [%]	Fibrin % cell toxicity [5, 8] [%]	Quadrant (FIG. 5b) [2, 11]	Fibrin % cell toxicity [5, 13] [%]	also measured
C=CCc1ccc(O)c(OC)c1 [Eugenol]	0	Q4	37	20	0			
Cc1cc(-c2ccc(/N=N/c3ccc4c(S(=O)(=O)O)cc(S(=O)(=O)O)c(N)c4c3O)c(C)c2)ccc1/N=N/c1ccc2c(S(=O)(=O)O)cc(S(=O)(=O)O)c(N)c2c1O [Evans Blue]	0	Q4	-37	7	0			
CCCCCCOc1ccccc1C(N)=O [Exalamide]	0	Q4	-15	18	1			
O=C1[C@H](CC[C@H](O)c2ccc(F)cc2)[C@@H](c2ccc(O)cc2)N1c1ccc(F)cc1 [Ezetimibe]	0	Q4	41	27	1			
CC(=O)OCC(CCn1cnc2cnc(N)nc21)COC(C)=O [Famciclovir]	1	Q4	-22	14	0			
CC(C)c1c(CN(C)C(C)Cc2ccccc2)n(C)n(-c2ccccc2)c1=O (centres unmarked) [Famprofazone]	0	Q4	-3	15	1			
O=S(=O)(c1cccc2cnccc12)N1CCCNCC1 [Fasudil Hydrochloride]	0	Q4	-72	-21	1			
Cc1nc(-c2ccc(OCC(C)C)c(C#N)c2)sc1C(=O)O [Febuxostat]	0	Q4	3	10	1			
NC(=O)OCC(COC(N)=O)c1ccccc1 [Felbamate]	0	Q4	-32	0	1			
CCOC(=O)C1=C(C)NC(C)=C(C(=O)OC)C1c1cccc(Cl)c1Cl (centres unmarked) [Felodipine]	0	Q4	2	14	1			
O=C(CCCl)NCCc1ccccc1 [Fenaclon]	0	Q4	8	16	1			
O=C(O)CCC(=O)c1ccc(-c2ccccc2)cc1 [Fenbufen]	0	Q4	3	25	0			
CCCCC(O)c1ccccc1 (centres unmarked) [Fenipentol]		Q4			1			LPS % cell toxicity [1]: 0%; Fibrin % inhibition ([3]; compounds at 10 μM): −1%; LPS % inhibition [4, 7]: 25%
C[C@@H]1C[C@H]2[C@@H]3CCC4=CC(=O)C=C[C@]4(C)[C@@]3(Cl)[C@@H](O)C[C@]2(C)[C@@]1(OC(=O)c1ccco1)C(=O)CCl [Mometasone Furoate]	4		100	106				Quadrant (FIG. 5b) [2, 9]: Q2; Fibrin % cell toxicity [5, 10]: 3%
CC(C)(C)NCC(O)COc1cccc2c1CC(O)C(O)C2 (centres unmarked) [Nadolol]	3		107	108				Quadrant (FIG. 5b) [2, 9]: Q2; Fibrin % cell toxicity [5, 10]: 4%
O=C1CC[C@@]2(O)[C@H]3Cc4ccc(O)c5c4[C@@]2(CCN3CC2CC2)[C@H]1O5 [Naltrexone Hydrochloride]	2		107	79				Quadrant (FIG. 5b) [2, 9]: Q2; Fibrin % cell toxicity [5, 10]: 4%
Cc1c(NC(=O)c2cccnc2)c(=O)n(-c2ccccc2)n1C [Nifenazone]	78		114	132				Quadrant (FIG. 5b) [2, 9]: Q2; Fibrin % cell toxicity [5, 10]: 85%
O=C(N/N=C/c1ccc([N+](=O)[O-])o1)c1ccc(O)cc1 [Nifuroxazide]	14		112	120				Quadrant (FIG. 5b) [2, 9]: Q2; Fibrin % cell toxicity [5, 10]: 6%
CCC1(C)OC(=O)N(C)C1=O (centres unmarked) [Paramethadione]	0					Q4	0	inhibition at 10 µM [3, 12]: -15%; inhibition at 10 µM ([4]; 48 h): 3%
C#CCN(C)Cc1ccccc1 [Pargyline]	0					Q4	1	inhibition at 10 µM [3, 12]: -25%; inhibition at 10 µM ([4]; 48 h): 11%
NC[C@@H]1O[C@H](O[C@H]2[C@@H](O)[C@H](O[C@@H]3[C@@H](O)[C@H](N)C[C@H](N)[C@H]3O[C@H]3O[C@H](CO)[C@@H](O)[C@H](O)[C@H]3N)O[C@@H]2CO)[C@H](N)[C@@H](O)[C@@H]1O [Paromomycin Sulfate]	0					Q4	1	inhibition at 10 µM [3, 12]: 9%; inhibition at 10 µM ([4]; 48 h): 14%
CCC(=O)c1ccc(O)cc1 [Paroxypropione]	0					Q4	1	inhibition at 10 µM [3, 12]: -11%; inhibition at 10 µM ([4]; 48 h): 17%
NNC(=O)c1ccncc1.Nc1ccc(C(=O)O)c(O)c1 [Pasiniazid]						Q4	1	LPS % cell toxicity [1]: 0%; Fibrin % inhibition [3, 12]: −61%; LPS % inhibition [4]: 17%
C[C@H]1COc2c(C3(N)CC3)c(F)cc3c(=O)c(C(=O)O)cn1c23 [Pazufloxacin Mesylate, Pazufloxacin]						Q4	1	LPS % cell toxicity [1]: 0%; Fibrin % inhibition [3, 12]: −10%; LPS % inhibition [4]: 11%
CN1C(C)(C)CCCC1(C)C [Pempidine Tartrate]	0					Q4	1	inhibition at 10 µM [3, 12]: -19%; inhibition at 10 µM ([4]; 48 h): 13%
Nc1nc2c(ncn2CCC(CO)CO)c(=O)[nH]1 [Penciclovir]	0					Q4	1	inhibition at 10 µM [3, 12]: -44%; inhibition at 10 µM ([4]; 48 h): 4%
OC1(c2ccc(Cl)c(C(F)(F)F)c2)CCN(CCCC(c2ccc(F)cc2)c2ccc(F)cc2)CC1 [Penfluridol]	0					Q4	1	inhibition at 10 µM [3, 12]: 3%; inhibition at 10 µM ([4]; 48 h, primary microglia HTS, LPS stimulation, cell size >800 μm2 as marker of activation): 8%
C1CCc2nnnn2CC1 [Pentetrazole, Pentylenetetrazol]						Q4	1	LPS % cell toxicity [1]: 1%; Fibrin % inhibition [3, 12]: −12%; LPS % inhibition [4]: 18%
